Key:
serum testosterone = test: LHRH agonist-induced serum testosterone in the dog; format: in vivo; settings: dogs; for prevention of the rise in serum testosterone during the first days of treatment with the peptide: given per os three times daily together with 50 μg LHRH-A daily (aminoglutethimide group plus hydrocortisone)
Method: Eighteen mongrel dogs weighing between 20-30 kg were randomly divided into three groups. The animals were housed one per cage and fed Purina Dog Chow and tap water ad libitum.
The animals of group 1 were injected daily (at 0700 h) with 50 μg of the LHRH agonist [D-Trp^6, des-Gly-NH2^10 ]LHRH ethylamide (LHRH-A). In group 2, the animals were also injected daily with 50 μg of LHRH-A and took in addition 200 mg of ketoconazole per os at 0700 h, 1500 h and 2300 h. The animals of group 3 received daily 50 μg of LHRH-A and 125 mg of aminoglutethimide per os at 0700 h, 1500 h, 2300 h plus 10 mg of hydrocortisone twice daily.
Blood samples were collected at 0700 h, 0900 h, 1100 h and 1500 h one day before treatment and every day during the treatment. Plasma was extracted with diethyl ether and testosterone was separated on LH-20 columns before RIA measurements.

testosterone levels = settings: rodents, in combination with chronic administration of Leuprolide; cited from earlier work
[1] = system: MCF7 human breast tumor cells; settings: inhibitory activity antagonized by estradiol; cited from earlier work
advanced breast cancer = settings: cited from earlier work

Compound: CCC1(c2ccc(N)cc2)CCC(=O)NC1=O (centres unmarked) [aminoglutethimide, 3-(4-aminophenyl)-3-ethyl-2,6-piperidinedione]
- prevention of the rise in serum testosterone during the first days of treatment with the peptide (serum testosterone): almost completely prevented

Compound: CCNC(=O)[C@@H]1CCCN1C(=O)[C@H](CCCNC(=N)N)NC(=O)[C@H](CC(C)C)NC(=O)[C@@H](Cc1c[nH]c2ccccc12)NC(=O)[C@H](Cc1ccc(O)cc1)NC(=O)[C@H](CO)NC(=O)[C@H](Cc1c[nH]c2ccccc12)NC(=O)[C@H](Cc1c[nH]cn1)NC(=O)[C@@H]1CCC(=O)N1 [[D-Trp^6 des-Gly-NH2^10]LHRH ethylamide, [D-Trp^6, des-Gly-NH2^10]LHRH ethylamide]
- level of serum testosterone on day 19 (serum testosterone; daily injection of 50 μg, day 19): near-castration levels
- increase in serum testosterone (serum testosterone; daily injection of 50 μg, one to six days after start of treatment): approximately 500 % above control

Compound: CC(=O)N1CCN(c2ccc(OCC3COC(Cn4ccnc4)(c4ccc(Cl)cc4Cl)O3)cc2)CC1 (centres unmarked) [ketoconazole]
- basal and Leuprolide stimulated testosterone levels (testosterone levels): decreased
- prevention of the rise in serum testosterone during the first days of treatment with the peptide (serum testosterone): almost completely prevented

Compound: CC[C@H](c1cccc(O)c1)[C@@H](CC)c1cccc(O)c1 [meso-3,4-bis(3'-hydroxyphenyl)hexane]
- inhibition of MCF7 human breast tumor cells [1]: inhibits

Compound: CC/C(=C(\c1ccccc1)c1ccc(OCCN(C)C)cc1)c1ccccc1 [Tamoxifen, (Z)-2-[4-(1,2-diphenyl-1-butenyl)phenoxy]-N,N-dimethylethanamine]
- remission of advanced breast cancer, share of patients treated (advanced breast cancer; Tamoxifen alone): about 30%
- objective remission of breast cancer (advanced breast cancer; combined use with the LH-RH agonist Buserelin): 35%

— patent US4760053A, “Combination therapy for selected sex steroid dependent cancers” (priority 1985, dated 1988)
